As a reminder, the IC50 is the concentration that gives 50% inhibition.

Test [1] has as its target T1, PKMYT1 (Homo sapiens, UniProt Q99640).
T1 construct: PKMYT1 (93 kD, full length, N-terminal GST tag from Signal Chem); GST (N); purchased Signal Chem
T1 sequence (Q99640 1-499): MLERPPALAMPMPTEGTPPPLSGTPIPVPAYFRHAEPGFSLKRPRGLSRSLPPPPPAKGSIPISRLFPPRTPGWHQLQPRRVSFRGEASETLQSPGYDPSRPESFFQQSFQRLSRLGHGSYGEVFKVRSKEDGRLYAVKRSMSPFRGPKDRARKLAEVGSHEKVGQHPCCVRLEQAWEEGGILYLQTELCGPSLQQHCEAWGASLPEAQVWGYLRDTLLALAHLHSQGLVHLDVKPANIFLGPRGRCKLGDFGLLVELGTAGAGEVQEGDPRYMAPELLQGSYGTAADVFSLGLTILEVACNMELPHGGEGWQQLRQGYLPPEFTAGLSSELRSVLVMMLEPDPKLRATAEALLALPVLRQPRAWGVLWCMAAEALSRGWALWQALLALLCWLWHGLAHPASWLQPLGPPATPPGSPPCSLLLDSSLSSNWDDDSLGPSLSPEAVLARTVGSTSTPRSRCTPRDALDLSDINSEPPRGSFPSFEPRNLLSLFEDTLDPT
Description: ADP-Glo PKMYT1 ATP-depletion assay. To be noted: 50 nM PKMYT1, 13.3 nM CDK1, read-out: Biochemical IC50. The protocol: (§1) Biochemical IC50 values were determined via ADP-Glo™ assay. Cellular IC50 values were determined via AlphaLISA assay.
ADP-Glo™ PKMYT1 ATP-depletion assay. The activity of PKMYT1 is measured using a luciferase-luciferin based ATP detection reaction to quantify ATP depletion resulting from kinase-catalyzed phosphoryl transfer to CDK1 or autophosphorylation of PKMYT1. The ADP generated as a byproduct of the reaction is converted to ATP and used to drive a luciferase reaction. Test compounds were dissolved in DMSO and dispensed into Corning 3824 384-well plates prior to the experiment such that the final DMSO concentration was <1%. To the compounds was added 3 μL of PKMYT1 (93 kD, full length, N-terminal GST tag from Signal Chem). The reaction was started by the addition of 2 μL of CDK1 (58 kDa, full length, N-terminal GST tag from Signal Chem) and ATP in assay buffer (50 mM Hepes, 40 mM NaCl, 10 mM MgCl2, 1 mM DTT, 0.1 mg/mL BSA, 2.5 mM MnCl2). Final assay concentrations were 50 nM PKMYT1, 13.3 nM CDK1, and 88 µM ATP. Plates were centrifuged for 1 minute at 1000 RPM and incubated at RT for 120 minutes. After the incubation period, ADP-Glo™ reagent was added and the plates were incubated for another 40 minutes before finally adding the kinase detection reagent. 30 minutes after the addition, plates were placed on a PHERAstar® plate reader and read using the Luminescence Protocol, integration time at 0.5 seconds.
In general terms: ADP-Glo turns the ADP formed in a reaction into a luminescent signal.

Test [2] concerns phosphorylation of CDK1 at Thr14 in HCC1806 cells. In words: Cell lysate AlphaLISA assay measuring inhibition of phosphorylation of CDK1 Thr14. To be noted: read-out: Cellular IC50. Type of test: cell-based. As to the method:
as §1
Cell lysate AlphaLISA® assay measuring inhibition of phosphorylation of CDK1 Thr14. Inhibition of phosphorylation of CDK1 at Thr14 was determined using AlphaLISA® SureFire® Ultra™ Kit from Perkin Elmer (ALSU-PCDK1-A10K). HCC1806 cells were seeded at 2K cells per well (50 μl/well) in 384-well plates (Corning 3570) and stored overnight at 37° C. and 5% CO2. The following day, the compounds dissolved in DMSO were introduced to the cells and incubated for 4 hours at 37° C. and 5% CO2. The cells were then washed with PBS using Blue®Washer and 10 μl of lysis buffer containing protease inhibitor was added. The plate was placed on an orbital shaker (at 4° C.) for 30 minutes and stored overnight at −80° C. for complete lysing. The next day, the plates were thawed at room temperature for at least 30 min. Reagents were prepared in a dimmed light setting (<100 lumens). The assay was run by first adding 5 μl of the acceptor mix (reaction buffer 1: reaction buffer 2: activation buffer: acceptor beads 47:47:4:2), covering the plate with foil, shaking for 2 minutes and incubating at RT for 60 minutes. The donor mix (dilution buffer: donor beads 47:3) was then added at 5 μl per well, placed on the shaker for 2 minutes and incubated at RT for 60 minutes before reading the plates on a PHERAstar® plate reader. The results were normalized to DMSO (0% Inhibition) and 3 μM of reference compound.
Background: In Alpha technology, singlet oxygen from a donor bead excites a nearby acceptor bead.

Like-named read-outs stand apart in the source and are kept apart here.

Consider `COc1ccnc2c(-c3cccc(O)c3C)c(N)c(C(N)=O)cc12` [Compound 318], for which the values for the IC50 in test [1] and in test [2] (4 hours) were under 50 nM and 50 to 500 nM, respectively.

In the case of `COc1ccc2c(-c3c(C)ccc(O)c3C)c(N)c(C(N)=O)nc2c1` [Compound 47, 3-Amino-4-(3-hydroxy-2,6-dimethylphenyl)-7-methoxyquinoline-2-carboxamide], the concentration for half-maximal inhibition (IC50) lay within 1000 to 5000 nM in test [1] and 1000 to 5000 nM in test [2] (Homo sapiens, HCC1806, 4 h).

On to `Cc1cncc(C2=c3ncccc3=NC(C(N)=O)C2N)c1C` (stereo not drawn) [Compound 212], for which the results for the half-inhibitory concentration (IC50) in test [1] and in test [2] (4 hours) were 50 to 500 nM and 500 to 1000 nM, respectively.

Regarding `Cc1nc2cc(C(N)=O)c(N)c(-c3cccc(O)c3C)c2nc1C` (single isomer, unassigned) [Compound 93, (M)-7-Amino-8-(3-hydroxy-2-methylphenyl)-2,3-dimethylquinoxaline-6-carboxamide], the IC50 in test [1] and in test [2] (4 hours) was at least 5000 nM each time.

In the case of `Cc1c(O)cccc1-c1c(N)c(C(N)=O)nc2cccc(C#N)c12` [Compound 129, 3-Amino-5-cyano-4-(3-hydroxy-2-methylphenyl)quinoline-2-carboxamide], the IC50 in test [1] was under 50 nM; in test [2] (Homo sapiens, HCC1806, 4 h), under 50 nM.

Regarding `NC(=O)c1nc2cccnc2c(-c2cccc3[nH]nc(F)c23)c1N` [Compound 306], the IC50 in test [1] is 50 to 500 nM; in test [2] (4 hours), at least 5000 nM.

As to `NC(=O)c1nc2cccnc2c(-c2cnc(N)cc2C(F)(F)F)c1N` [Compound 183], the IC50 in test [1] is at least 5000 nM; in test [2] (Homo sapiens, HCC1806, 4 h), at least 5000 nM.

On to `COc1ccnc2c(-c3cccc(O)c3C)c(N)c(C(N)=O)cc12` (atropisomer, axis not shown) [Compound 325], for which the half-inhibitory concentration (IC50) in test [1] and in test [2] (4 hours) was 1000 to 5000 nM in each case.

For the compound `Cc1ccncc1-c1c(N)c(C(N)=O)nc2cccnc12` [Compound 184], the IC50 was 50 to 500 nM in test [1] and at least 5000 nM in test [2] (Homo sapiens, HCC1806, 4 h).

Consider `Cc1ccc2[nH]ncc2c1-c1cc(C(N)=O)cc2nccnc12` [Compound 70, 8-(5-Methyl-1H-indazol-4-yl)quinoxaline-6-carboxamide], for which the 50% inhibitory concentration (IC50) is at least 5000 nM in test [1] and at least 5000 nM in test [2] (Homo sapiens, HCC1806, 4 h).

Consider `Cc1cccc(C)c1-c1c(N)c(C(N)=O)cc2nccnc12` [Compound 308], for which the IC50 was at least 5000 nM in test [1] and at least 5000 nM in test [2] (Homo sapiens, HCC1806, 4 h).

With `Cc1ccc2c(-c3cccc(O)c3C)c(N)c(C(N)=O)nc2c1` [Compound 46, 3-Amino-4-(3-hydroxy-2-methylphenyl)-7-methylquinoline-2-carboxamide], the concentration for half-maximal inhibition (IC50) in test [1] is 1000 to 5000 nM; in test [2] (Homo sapiens, HCC1806, 4 h) it was at least 5000 nM.

Turning to `Cc1ccc(O)c(C)c1-c1c(N)c(C(N)=O)cc2nc(C(F)(F)F)cnc12` (single isomer, unassigned) [Compound 112, (P)-7-Amino-8-(3-hydroxy-2,6-dimethylphenyl)-3-(trifluoromethyl)quinoxaline-6-carboxamide], the concentration for half-maximal inhibition (IC50) is under 50 nM in test [1] and 50 to 500 nM in test [2] (4 hours).

For `NC(=O)c1nc2cccnc2c(-c2cccc3[nH]ncc23)c1N` [Compound 206], the concentration for half-maximal inhibition (IC50) lay within 50 to 500 nM in test [1] and 1000 to 5000 nM in test [2] (Homo sapiens, HCC1806, 4 h).

For `COc1nc2cc(C(N)=O)c(N)c(-c3cccc(O)c3C)c2nc1C` (atropisomer, axis not shown) [Compound 187], the IC50 was under 50 nM in test [1] and 50 to 500 nM in test [2] (4 hours).

For the compound `CCn1ccc2cc(C(N)=O)c(N)c(-c3cccc(O)c3C)c2c1=O` (atropisomer, axis not shown) [Compound 329], the IC50 in test [1] was under 50 nM; in test [2] (4 hours), 50 to 500 nM.

For the compound `NC(=O)c1cc(-c2cccc3[nH]ncc23)c2nccnc2c1` [Compound 75, 8-(1H-indazol-4-yl)quinoxaline-6-carboxamide], the 50% inhibitory concentration (IC50) is at least 5000 nM in test [1] and at least 5000 nM in test [2] (Homo sapiens, HCC1806, 4 h).

For `Cc1ccc(O)c(C)c1-c1c(N)c(C(N)=O)nc2c(C(F)(F)F)cccc12` [Compound 28, 3-Amino-4-(3-hydroxy-2,6-dimethylphenyl)-8-(trifluoromethyl)quinoline-2-carboxamide], the 50% inhibitory concentration (IC50) in test [1] was 50 to 500 nM; in test [2] (Homo sapiens, HCC1806, 4 h), 50 to 500 nM.

For `Cc1ccc(O)c(C)c1-c1c(N)c(C(N)=O)nc2ccc(F)cc12` (atropisomer, axis not shown; (P)) [Compound 24, (P)-3-amino-6-fluoro-4-(3-hydroxy-2,6-dimethylphenyl) quinoline-2-carboxamide], the 50% inhibitory concentration (IC50) in test [1] was 1000 to 5000 nM; in test [2] (4 hours) it was at least 5000 nM.

Turning to `Cc1ccc(O)c(C)c1-c1c(N)c(C(N)=O)nc2ccc(C(F)(F)F)cc12` [Compound 34], the half-inhibitory concentration (IC50) was 1000 to 5000 nM in test [1] and 1000 to 5000 nM in test [2] (Homo sapiens, HCC1806, 4 h).

Take `NC(=O)c1cc(-c2cccc3[nH]ncc23)c2ccccc2n1` [Compound 14, 4-(1H-Indazol-4-yl)quinoline-2-carboxamide]: the half-maximal inhibitory concentration (IC50) is at least 5000 nM in test [1] and at least 5000 nM in test [2] (Homo sapiens, HCC1806, 4 h).

On to `NC(=O)c1cc2nccnc2c(-c2c(Cl)ccc3[nH]ncc23)c1N` [Compound 142], for which the values for the half-inhibitory concentration (IC50) in test [1] and in test [2] (4 hours) were 50 to 500 nM and 1000 to 5000 nM, respectively.

With `Cc1ccc(O)c(C)c1-c1c(N)c(C(N)=O)nc2cccnc12` (single isomer, unassigned) [Compound 9, (P)-3-Amino-4-(3-hydroxy-2,6-dimethylphenyl)-1,5-naphthyridine-2-carboxamide], the IC50 in test [1] and in test [2] (4 hours) was under 50 nM in each case.

As to `Cc1ccc(O)c(C)c1-c1c(N)c(C(N)=O)cc2nccnc12` (single isomer, unassigned) [Compound 83, (P)-7-Amino-8-(3-hydroxy-2,6-dimethylphenyl)quinoxaline-6-carboxamide], the half-maximal inhibitory concentration (IC50) in test [1] was under 50 nM; in test [2] (4 hours) it was 50 to 500 nM.

On to `NC(=O)c1nc2cccnc2c(-c2c(F)ccc3[nH]ncc23)c1N` (atropisomer, axis not shown) [Compound 244], for which the values for the IC50 in test [1] and in test [2] (4 hours) were 50 to 500 nM and 500 to 1000 nM, respectively.

Take `Cc1c(O)cccc1-c1c(N)c(C(N)=O)nc2cccc(S(C)(=O)=O)c12` [Compound 319]: the IC50 in test [1] was in the range of 50 to 500 nM; in test [2] (Homo sapiens, HCC1806, 4 h) it was 500 to 1000 nM.

Turning to `Cc1c(O)cccc1-c1c(N)c(C(N)=O)nc2cc(C(F)(F)F)cnc12` [Compound 161], the values for the IC50 in test [1] and in test [2] (4 hours) were under 50 nM and 50 to 500 nM, respectively.

On to `NC(=O)c1cc2nccnc2c(-c2ccc3ncoc3c2)c1N` [Compound 198], for which the 50% inhibitory concentration (IC50) in test [1] is at least 5000 nM; in test [2] (Homo sapiens, HCC1806, 4 h), at least 5000 nM.

`Cc1c(F)cncc1C1=c2ncccc2=NC(C(N)=O)C1N` (stereo not drawn) [Compound 225]: the IC50 in test [1] and in test [2] (4 hours) was at least 5000 nM each time.

Turning to `NC(=O)c1cc2nccnc2c(-c2cccc(O)c2F)c1N` [Compound 120, 7-Amino-8-(2-fluoro-3-hydroxyphenyl)quinoxaline-6-carboxamide], the half-inhibitory concentration (IC50) in test [1] is 50 to 500 nM; in test [2] (Homo sapiens, HCC1806, 4 h), 50 to 500 nM.

For the compound `Cc1c(O)cccc1-c1c(N)c(C(N)=O)cc2ncccc12` [Compound 67, 6-Amino-5-(3-hydroxy-2-methylphenyl)quinoline-7-carboxamide], the IC50 in test [1] lay within 50 to 500 nM; in test [2] (4 hours), 1000 to 5000 nM.

With `Cc1c(O)cccc1-c1c(N)c(C(N)=O)nc2cccc(C#N)c12` (atropisomer, axis not shown) [Compound 242], the IC50 in test [1] and in test [2] (4 hours) was under 50 nM each time.

For `CC1=C(c2c(N)c(C(N)=O)nc3cccnc23)CCC[C@@H]1O` [Compound 310], the IC50 in test [1] was at least 5000 nM; in test [2] (Homo sapiens, HCC1806, 4 h), at least 5000 nM.

The values are drawn from US20260176270A1 (Exelixis, Inc., priority 2022, published 2026).
